“Also recorded” adds a separate entry of the source.
Key:
[1] = biological target: T1, fibrin clots formed from purified human fibrinogen and human α thrombin (Homo sapiens, UniProt P02671+P02675+P02679); test: Fibrin clot turbidity (A405), purified fibrinogen clotted with thrombin in microplates; assay type: biochemical; details: for polyP concentration exerting maximal effect on turbidity: 2.6 mg/mL citrate-free fibrinogen, 1 nM thrombin (FIG. 8)
T1 construct: purchased Enzyme Research Laboratories (South Bend, Ind.)
T1 sequence (P02671 20-644 isoform P02671-2 limits assumed): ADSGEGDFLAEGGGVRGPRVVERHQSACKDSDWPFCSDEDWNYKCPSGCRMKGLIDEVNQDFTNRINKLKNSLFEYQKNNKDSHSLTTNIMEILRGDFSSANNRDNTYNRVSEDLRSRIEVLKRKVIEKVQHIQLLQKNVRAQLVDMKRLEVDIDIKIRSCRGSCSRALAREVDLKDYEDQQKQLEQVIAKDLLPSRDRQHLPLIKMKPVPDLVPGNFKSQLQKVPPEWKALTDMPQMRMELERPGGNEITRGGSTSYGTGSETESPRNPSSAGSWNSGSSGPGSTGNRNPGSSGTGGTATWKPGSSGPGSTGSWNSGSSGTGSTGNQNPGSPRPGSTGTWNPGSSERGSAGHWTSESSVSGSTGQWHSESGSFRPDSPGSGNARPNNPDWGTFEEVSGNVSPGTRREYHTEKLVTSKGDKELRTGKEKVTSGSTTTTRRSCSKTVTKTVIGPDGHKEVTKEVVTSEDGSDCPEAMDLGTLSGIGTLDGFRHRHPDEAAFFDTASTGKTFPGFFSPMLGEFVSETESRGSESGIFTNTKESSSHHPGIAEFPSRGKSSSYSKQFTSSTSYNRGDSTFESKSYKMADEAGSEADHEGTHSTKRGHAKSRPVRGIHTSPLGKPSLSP
T1 sequence (P02675 31-491): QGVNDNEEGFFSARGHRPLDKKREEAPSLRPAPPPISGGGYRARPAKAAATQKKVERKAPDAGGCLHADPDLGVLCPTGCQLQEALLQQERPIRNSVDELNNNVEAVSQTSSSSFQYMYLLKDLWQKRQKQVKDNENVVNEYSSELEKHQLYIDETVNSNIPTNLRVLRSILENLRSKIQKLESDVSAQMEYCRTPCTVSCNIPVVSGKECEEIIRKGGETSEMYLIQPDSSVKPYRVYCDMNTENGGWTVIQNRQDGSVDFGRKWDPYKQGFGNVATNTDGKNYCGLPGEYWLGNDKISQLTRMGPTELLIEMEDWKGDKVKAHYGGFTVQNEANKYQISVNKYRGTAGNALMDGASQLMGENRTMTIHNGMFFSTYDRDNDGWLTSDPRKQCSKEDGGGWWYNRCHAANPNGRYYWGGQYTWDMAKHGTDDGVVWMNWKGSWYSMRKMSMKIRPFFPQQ
T1 sequence (P02679 27-437 isoform P02679-2 limits assumed): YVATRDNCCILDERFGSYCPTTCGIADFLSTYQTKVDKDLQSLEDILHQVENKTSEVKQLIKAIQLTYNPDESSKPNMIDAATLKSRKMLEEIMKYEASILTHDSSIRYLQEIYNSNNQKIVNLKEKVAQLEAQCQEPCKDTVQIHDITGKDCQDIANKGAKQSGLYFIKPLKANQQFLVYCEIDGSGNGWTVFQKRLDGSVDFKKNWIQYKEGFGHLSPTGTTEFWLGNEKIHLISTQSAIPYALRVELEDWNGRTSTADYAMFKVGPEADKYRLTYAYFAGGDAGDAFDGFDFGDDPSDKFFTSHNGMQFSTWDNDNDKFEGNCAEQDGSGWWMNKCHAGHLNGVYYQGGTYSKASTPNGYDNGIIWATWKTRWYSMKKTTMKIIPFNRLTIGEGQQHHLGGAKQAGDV
Method: The in vitro studies reported here utilize a microplate-based method to evaluate the formation of fibrin clots, which are prepared by mixing together purified fibrinogen and thrombin. Once fibrinogen is cleaved to fibrin, the fibrin monomers spontaneously polymerize to yield a three-dimensional gel, or clot. These fibrin polymers scatter visible light, resulting in increased turbidity which can monitored spectrophotometrically to detect clotting.
Fibrin clots were formed in 96-well polystyrene microplates (Corning Inc., Corning, N.Y.) by first preincubating fibrinogen with polyP in TBS plus the indicated CaCl2 concentrations. (Preincubations of fibrinogen with calcium ions were for 15 minutes unless otherwise stated.) Thrombin in TBS plus the same concentration of CaCl2 was then added to trigger clot formation. Reactant concentrations were typically 2.6 mg/mL fibrinogen, 62.5 pM to 8 nM thrombin, 0 to 8 mM polyP, and 0 to 5 mM CaCl2 in a total volume of 200 μL. In some studies, 0 to 10 U/mL unfractionated heparin or 1 mM iodoacetamide were also included. Clotting was evaluated by monitoring the change in turbidity (A405) for varying times (typically, 1 hour) at room temperature using a Spectramax microplate reader (Molecular Devices Corporation, Sunnyvale, Calif.). […] Final turbidities (A405) of fibrin clots were typically quantified after the clots had matured for 60 minutes.

[2] = biological target: T2, fibrin cross-linking by factor XIIIa (Homo sapiens, UniProt P02671+P02675+P02679); test: Fibrin cross-link formation (SDS-PAGE); assay type: biochemical; details: 37° C., data not shown
T2 construct: changing the rate or extent of fibrin cross-linking by factor XIIIa; purchased Enzyme Research Laboratories (South Bend, Ind.)
T2 sequence (P02671 20-644 isoform P02671-2 limits assumed): T1 sequence (P02671 20-644 isoform P02671-2 limits assumed)
T2 sequence (P02675 31-491): T1 sequence (P02675 31-491)
T2 sequence (P02679 27-437 isoform P02679-2 limits assumed): T1 sequence (P02679 27-437 isoform P02679-2 limits assumed)
Method: Rates of a and y cross-link formation were studied in clotting reactions carried out as described for turbidity measurements using purified fibrinogen, except that fibrin clots were formed in polypropylene tubes at 37° C. and reactions were stopped at various times by adding an equal volume of 2×SDS sample buffer (100 mM Tris-HCl, 1 mM dithiothreitol, 4% sodium dodecyl sulfate (SDS), 0.02% bromophenol blue, 20% glycerol, pH 6.8) with immediate boiling at 95° C. for 5 minutes. Samples (10 μL) were then subjected to SDS-PAGE using 7.5% polyacrylamide gels and stained with Gelcode (Pierce, Rockford, Ill.) according to the manufacturer's directions.

[3] = biological target: T3, fibrin clots / human plasmin (Homo sapiens, UniProt P02671+P02675+P02679); test: Fibrinolysis of fibrin clots by plasmin; assay type: biochemical; details: 1 mM polyP, 1 mg/mL fibrinogen, 2.5 mM CaCl2, 8 nM plasmin, 1 nM thrombin; clots without polyP lysed quickly
T3 construct: purchased Enzyme Research Laboratories (South Bend, Ind.)
T3 sequence (P02671 20-644 isoform P02671-2 limits assumed): T1 sequence (P02671 20-644 isoform P02671-2 limits assumed)
T3 sequence (P02675 31-491): T1 sequence (P02675 31-491)
T3 sequence (P02679 27-437 isoform P02679-2 limits assumed): T1 sequence (P02679 27-437 isoform P02679-2 limits assumed)
Method: FIG. 6 is a graph of the time course of fibrinolysis of fibrin clots. Fibrinogen (1 mg/mL) was preincubated for 15 minutes in the presence of 2.5 mM CaCl2 with 1 mM polyP (▾) or without polyP (O), after which 8 nM plasmin was added followed immediately by 1 nM thrombin. Fibrin clots were allowed to form for 30 minutes, after which their turbidities were measured. The data are plotted as A405 values normalized to the initial A405 value for each curve.
In these experiments, clots were formed by mixing purified human fibrinogen, human plasmin, and human thrombin in the presence of calcium ions, with or without polyP. Clot lysis was quantified by measuring the decrease in optical density over time (following a 30 minute initial clot formation). […] (FIG. 6)

human plasma = details: previous studies [20]; cited from earlier work
fibrin fibrils [4] = biological target: T4, fibrin fibrils (Homo sapiens, UniProt P02671+P02675+P02679); test: Scanning electron microscopy of fibrin clots (fibril thickness); assay type: biochemical; details: 2.6 mg/mL fibrinogen, 2.5 mM CaCl2, 3 nM thrombin, without polyP 26.5±0.7 nm
T4 construct: purchased Enzyme Research Laboratories (South Bend, Ind.)
T4 sequence (P02671 20-644 isoform P02671-2 limits assumed): T1 sequence (P02671 20-644 isoform P02671-2 limits assumed)
T4 sequence (P02675 31-491): T1 sequence (P02675 31-491)
T4 sequence (P02679 27-437 isoform P02679-2 limits assumed): T1 sequence (P02679 27-437 isoform P02679-2 limits assumed)
Method: Fibrin clots formed as described above for turbidity measurements were allowed to mature for 2 hours after thrombin addition. Clots were washed 4 times in 0.1 M cacodylate, fixed in Karnovsky's gluteraldehyde solution overnight, and then processed by stepwise ethanol gradient, critical point drying, and sputter coating with gold palladium. Clots were observed and photographed in six different representative areas using a scanning electron microscope.

fibrin fibrils [5] = biological target: T4, fibrin fibrils; test: Fibril size determination (relative mass-length ratio from wavelength scan); assay type: biochemical; details: 1 mM polyP; 2.6 mg/mL fibrinogen, 3 nM thrombin, 2.5 mM calcium ions
Excerpt: Previous studies of fibrin clot structure have shown that the final optical density of fibrin clots is primarily a function of the thickness of the fibrils formed. It is possible to estimate the mass-length ratios of fibrin fibrils by measuring the optical density of clots at a series of wavelengths of light, using a suitable mathematical analysis of the data. Such analyses of fibrin clots were made by mixing fibrinogen and thrombin in the presence of calcium ions and varying concentrations of polyP, in order to determine the effect of polyP on the mass-length ratio of the fibrils (FIG. 5(A)). […] When fibrin clots formed in the presence of calcium ions and varying polyP concentrations were visualized using scanning electron microscopy, the fibrin fibrils had increased thickness as the polyP concentration increased (FIGS. 5(C-E)).
Relative fibril mass to length ratios were determined using a modification of the method of Carr and Gabriel for clots with high turbidity. Briefly, fibrin clots were allowed to mature for 2 hours after thrombin addition, after which the absorbance was scanned from 400 to 800 nm on a Spectramax microplate reader. A plot of 1/τ*λ^3(y axis) versus 1/λ^2 (x axis) was used to determine the y intercept, the inverse of which is proportional to the mass-length ratio of the fibers. […]

spleen surface wounds = test: Porcine splenic trauma model of surgical bleeding; assay type: in vivo, pig
Method: In preliminary experiments, the ability of polyP to enhance the performance of a fibrin sealant composed of purified fibrinogen and thrombin was evaluated. The fibrinogen component of the experimental fibrin sealant was pre-mixed with calcium ions and polyP, while control fibrinogen preparations were pre-mixed with calcium ions without polyP. Shallow surface wounds were then made on the surface of the spleen of anesthetized pigs, after which 0.3 mL each of the fibrinogen and thrombin solutions were applied to the wound surface and allowed to react with each other. Including polyP in the fibrinogen solution shortened the time to cessation of bleeding in this model: 9.8±1.0 minutes with polyP, but 12.3±1.0 minutes without polyP (mean±SEM). Adding polyP to the fibrinogen solution also changed the appearance of fibrin clots formed on the wound surfaces.
Young adult pigs weighing 20-35 kg were anesthetized using intramuscular teletamine/zolazepam/glycopyrolate, followed by intubation and maintenance with inhaled isoflurane. A ventral midline laparotomy was performed and the spleen was externalized. Shallow (approximately 1 mm deep) oval surface wounds measuring approximately 3×5 mm were made using a Metzenbaum scissors. […] Time to cessation of bleeding was assessed visually. […]

[6] = biological target: T1, fibrin clots formed from purified human fibrinogen and human α thrombin; test: Fibrin clot turbidity (A405), purified fibrinogen clotted with thrombin in microplates; assay type: biochemical; details: up to 20 U/mL unfractionated heparin, 500 μM polyP

NC(=O)CI [iodoacetamide, reference compound]
effect of iodoacetamide on the enhancement of final clot turbidity by polyP ([1]; transglutaminase inhibitor added to clotting mixtures, data not shown): failed to antagonize the enhancement of final clot turbidity by polyP

Polyphosphate
rate of formation of cross-linked fibrin chains [2]: appeared to be the same with or without polyP; also recorded: failed to identify any impact of polyP | resistance of clots to fibrinolysis [3]: highly resistant to lysis by plasmin | effect on clotting time of human plasma (human plasma): shortens the clotting time of human plasma | effect on clotting time when thrombin was added to plasma (human plasma): did not shorten clotting times | mean fibril thickness (±standard error) (fibrin fibrils [4]; 100 μM polyP): 33.6±1.0 nm | mean fibril thickness (±standard error) (fibrin fibrils [4]; 500 μM polyP): 54.2±1.3 nm | mean fibril thickness (±standard error) (fibrin fibrils [4]; 1 mM polyP): 73.4±1.5 nm | polyP concentration exerting maximal effect on turbidity ([1]; 2 mM Ca2+): 1 mM | polyP concentration exerting maximal effect on turbidity ([1]; 2.5 mM Ca2+): 1 to 2 mM | polyP concentration exerting maximal effect on turbidity ([1]; 3 mM Ca2+): 2 to 4 mM | polyP concentration exerting maximal effect on turbidity ([1]; 5 mM Ca2+): 3 to 8 mM | polyP concentration giving optimal enhancement of final clot turbidity ([1]; expressed as phosphate monomer, 2.6 mg/mL fibrinogen, 8 nM thrombin, 2.5 mM calcium chloride (FIG. 3)): approximately 1 mM | effect on turbidity of fibrin clots ([1]; in the absence of Ca2+): did not increase the turbidity of fibrin clots | effect on final clot turbidity ([1]; mM Ca2+ present, regardless of the amount of thrombin added): markedly increased final clot turbidity | effect on fibrin clot turbidity with added factor XIIIa ([1]; preactivated factor XIIIa added to the clotting mixtures, data not shown): still increased fibrin clot turbidity | effect on thrombin clotting time ([1]; purified fibrinogen plus thrombin): lack of effect | enhancement of final clot turbidity with factor XIIIa inhibitor ([1]; with or without 1 mM iodoacetamide, data not shown): approximately equally well in the presence or absence of iodoacetamide | mass-length ratio of fibrin fibrils compared to clots formed in the absence of polyP (fibrin fibrils [5]): more than three times larger | time to cessation of bleeding (mean±SEM) (spleen surface wounds; fibrin sealant, polyP in the fibrinogen solution, 0.3 mL each of fibrinogen and thrombin solutions on spleen wound, without polyP 12.3±1.0 minutes): 9.8 ± 1.0 min | appearance of fibrin seals formed on the wound surfaces (spleen surface wounds; fibrinogen with polyP versus without polyP (FIG. 7)): more opaque

heparin [reference compound]
effect of added heparin on the polyP effect on turbidity [6]: did not reduce the effect of polyP on turbidity | magnitude of the turbidity increase relative to polyP ([1]; heparin 0 to 10 units/mL, data not shown): markedly lower than that observed with polyP | effect on fibrin turbidity ([1]; heparin examined from 0 to 10 units/mL, data not shown): increased fibrin turbidity in a dose-dependent fashion

From patent US8821861B2, “Fibrin sealant” (The Board of Trustees of the University of Illinois, priority 2007, dated 2014)
